# How the values were obtained:
# 5-HT2A receptor = 5-HT2A receptor (Homo sapiens, UniProt P28223); experiment: Radioligand receptor binding, 5-HT2A (agonist binding); details: radioligand racemic DOI
# Method: (§1) Receptor binding is determined for the Compounds of Example 1. The following literature procedures are used, each of which reference is incorporated herein by reference in their entireties: 5-HT2A: Bryant, H. U. et al. (1996), Life Sci., 15:1259-1268; D2: Hall, D. A. and Strange, P. G. (1997), Brit. J. Pharmacol., 121:731-736; D1: Zhou, Q. Y. et al. (1990), Nature, 347:76-80; SERT: Park, Y. M. et al. (1999), Anal. Biochem., 269:94-104; Mu opiate receptor: Wang, J. B. et al. (1994), FEBS Lett., 338:217-222.
# (§2) The compound of Example 1 is tested at a concentration of […] in DMSO solution. Compound binding is calculated as the percent inhibition of the binding of a radioactively labeled ligand specific for each target. The control ligands are radiolabeled forms of SCH 23390 (for D1), 7-hydroxy-DPAT (for D2S), racemic DOI (for 5-HT2A and 5-HT2B), veratridine (for sodium channel site 2), protriptyline (for NET) and imipramine (for SERT).
# (§3) In general, the results are expressed as a percent of control specific binding:
# (§4) [formula] and as a percent inhibition of control specific binding:
# (§5) [formula] obtained in the presence of the test compound (compound of Example 1).
# (§6) Further pharmacology studies are conducted to determine IC50 values for receptor binding to the 5-HT2A receptor, D1 receptor, and SERT. For each study, the compound of Example 1 is tested at a range of concentrations and compound binding at each concentration is calculated as the percent inhibition of the binding of a radioactively labeled ligand specific for the target. The control ligands are radiolabeled forms of […], racemic DOI (for 5-HT2A), and imipramine (for SERT). The IC50 value is determined by non-linear regression analysis of the competition curve generated with mean replicate values using Hill Equation curve fitting:
# (§7) [formula] wherein Y is specific binding, A is the left asymptote of the curve, D is the right asymptote of the curve, C is the compound concentration, and nH is the slope factor. Ki values are calculated using the Cheng Prusoff equation: […]
# D2S = D2S (Homo sapiens, UniProt P14416); experiment: Radioligand receptor binding, D2S (agonist binding); details: radioligand 7-hydroxy-DPAT
# Sequence of D2S (P14416 1-414 isoform P14416-2): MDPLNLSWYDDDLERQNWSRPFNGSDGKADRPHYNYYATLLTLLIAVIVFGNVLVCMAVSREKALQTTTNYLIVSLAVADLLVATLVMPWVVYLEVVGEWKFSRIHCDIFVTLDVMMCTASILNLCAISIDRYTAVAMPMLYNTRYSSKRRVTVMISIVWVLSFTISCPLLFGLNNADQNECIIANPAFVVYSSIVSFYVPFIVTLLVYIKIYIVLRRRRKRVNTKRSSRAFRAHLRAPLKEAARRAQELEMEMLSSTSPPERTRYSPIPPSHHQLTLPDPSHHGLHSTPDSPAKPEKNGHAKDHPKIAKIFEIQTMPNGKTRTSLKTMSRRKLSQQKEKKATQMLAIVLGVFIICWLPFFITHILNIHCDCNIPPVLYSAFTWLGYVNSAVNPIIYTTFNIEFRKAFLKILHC
# Method: as §1, §2, §3, §4, §5, §6, §7
# D1 = D1 (Homo sapiens, UniProt P21728); experiment: Radioligand receptor binding, D1 (antagonist binding); parameters: dose or concentration left out as unconfirmed; details: in DMSO solution; radioligand SCH 23390
# Sequence of D1 (P21728 whole entry): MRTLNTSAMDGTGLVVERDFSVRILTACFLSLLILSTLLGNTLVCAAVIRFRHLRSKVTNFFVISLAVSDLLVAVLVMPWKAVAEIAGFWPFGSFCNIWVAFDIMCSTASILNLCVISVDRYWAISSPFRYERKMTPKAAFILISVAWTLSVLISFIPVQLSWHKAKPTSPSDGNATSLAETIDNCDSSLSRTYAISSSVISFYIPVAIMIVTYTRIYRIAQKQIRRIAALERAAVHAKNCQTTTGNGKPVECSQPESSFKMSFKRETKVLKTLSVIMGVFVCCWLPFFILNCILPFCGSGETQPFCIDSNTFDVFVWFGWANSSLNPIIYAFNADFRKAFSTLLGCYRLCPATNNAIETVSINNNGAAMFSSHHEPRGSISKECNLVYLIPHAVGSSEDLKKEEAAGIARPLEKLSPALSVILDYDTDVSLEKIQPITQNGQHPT
# Method: as §1, §2, §3, §4, §5
# NET = NET (Homo sapiens, UniProt P23975); experiment: Radioligand binding, NET (antagonist binding); parameters: dose or concentration left out as unconfirmed; details: tested in DMSO solution; radioligand protriptyline
# Sequence of NET (P23975 whole entry): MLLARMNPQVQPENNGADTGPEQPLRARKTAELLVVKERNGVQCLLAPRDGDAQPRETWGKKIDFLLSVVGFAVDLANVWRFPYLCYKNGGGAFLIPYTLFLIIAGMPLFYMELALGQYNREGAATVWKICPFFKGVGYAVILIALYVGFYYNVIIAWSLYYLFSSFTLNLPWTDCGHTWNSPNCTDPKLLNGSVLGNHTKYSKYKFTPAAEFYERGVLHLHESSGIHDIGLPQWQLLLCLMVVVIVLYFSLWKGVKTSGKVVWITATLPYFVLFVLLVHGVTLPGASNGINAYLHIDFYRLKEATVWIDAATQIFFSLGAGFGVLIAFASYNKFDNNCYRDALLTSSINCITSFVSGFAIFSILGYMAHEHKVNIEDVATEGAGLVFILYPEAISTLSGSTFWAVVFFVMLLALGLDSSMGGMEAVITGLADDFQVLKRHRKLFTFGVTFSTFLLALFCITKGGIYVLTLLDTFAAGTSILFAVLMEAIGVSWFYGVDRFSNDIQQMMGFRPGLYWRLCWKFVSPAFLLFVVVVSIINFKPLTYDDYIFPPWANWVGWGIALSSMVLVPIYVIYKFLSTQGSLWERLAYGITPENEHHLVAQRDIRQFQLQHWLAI
# Method: as §2, §3, §4, §5
# Sodium channel (site 2) = experiment: Radioligand binding, sodium channel site 2 (antagonist binding); details: tested at 1.01.1M in DMSO solution; radioligand veratridine
# Method: as §2, §3, §4, §5
# SERT = SERT (Homo sapiens, UniProt P31645); experiment: Radioligand receptor binding, SERT (antagonist binding); details: radioligand imipramine
# Sequence of SERT (P31645 whole entry): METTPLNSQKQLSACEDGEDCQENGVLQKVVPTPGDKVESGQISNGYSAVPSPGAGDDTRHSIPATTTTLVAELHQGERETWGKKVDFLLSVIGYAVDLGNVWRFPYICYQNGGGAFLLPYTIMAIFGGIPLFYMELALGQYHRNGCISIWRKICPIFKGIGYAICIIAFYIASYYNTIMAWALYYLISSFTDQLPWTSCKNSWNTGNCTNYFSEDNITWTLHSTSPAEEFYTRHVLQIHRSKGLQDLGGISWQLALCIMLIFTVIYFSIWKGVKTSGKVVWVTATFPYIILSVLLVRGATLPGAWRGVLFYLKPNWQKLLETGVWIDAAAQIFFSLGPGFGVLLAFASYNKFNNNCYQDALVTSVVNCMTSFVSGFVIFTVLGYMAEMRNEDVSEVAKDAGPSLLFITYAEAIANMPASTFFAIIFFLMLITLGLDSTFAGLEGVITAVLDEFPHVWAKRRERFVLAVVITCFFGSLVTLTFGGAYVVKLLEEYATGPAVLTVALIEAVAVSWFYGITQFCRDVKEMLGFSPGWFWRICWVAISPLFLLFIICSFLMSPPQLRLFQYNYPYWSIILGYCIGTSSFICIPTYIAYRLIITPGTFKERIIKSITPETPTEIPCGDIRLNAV
# Method: as §1, §2, §3, §4, §5, §6, §7
# 5-HT2B = 5-HT2B (Homo sapiens, UniProt P41595); experiment: Radioligand receptor binding, 5-HT2B (agonist binding); parameters: dose or concentration left out as unconfirmed; details: in DMSO solution; radioligand racemic DOI
# Sequence of 5-HT2B (P41595 whole entry): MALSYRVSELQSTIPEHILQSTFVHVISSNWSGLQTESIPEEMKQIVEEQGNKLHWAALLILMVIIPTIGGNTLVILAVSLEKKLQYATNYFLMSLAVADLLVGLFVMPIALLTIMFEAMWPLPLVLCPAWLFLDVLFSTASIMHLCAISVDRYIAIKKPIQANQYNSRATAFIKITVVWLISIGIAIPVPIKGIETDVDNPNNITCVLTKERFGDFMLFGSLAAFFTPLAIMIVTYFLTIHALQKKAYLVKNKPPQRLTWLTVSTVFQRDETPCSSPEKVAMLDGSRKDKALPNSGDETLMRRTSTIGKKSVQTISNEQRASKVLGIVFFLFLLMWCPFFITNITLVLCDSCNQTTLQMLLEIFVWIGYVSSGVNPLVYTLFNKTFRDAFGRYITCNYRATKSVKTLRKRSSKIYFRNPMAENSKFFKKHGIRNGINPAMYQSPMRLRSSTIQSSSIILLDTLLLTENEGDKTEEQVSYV
# Method: as §1, §2, §3, §4, §5
# [1] = tested on: symptoms of emotional experience (negative symptoms of schizophrenia); experiment: Clinical studies in patients with acute exacerbated schizophrenia; assay type: in vivo, human; details: once daily 60 mg P.O., up to 28 days, two clinical studies
# Text: Social avoidance can be a critical and debilitating symptom in patients suffering from anxiety disorders, especially social anxiety disorder, as well as in patients suffering from traumatic anxiety disorders. Social avoidance is often one of the key determinants of whether a person with a severe anxiety disorder is capable of maintaining familial relationships or employment relationships. […] Negative symptoms of schizophrenia can be divided into two categories: emotional experience (e.g., emotional withdrawal, passive social withdrawal, active social avoidance) and emotional expression (e.g., blunted effect, poor rapport, lack of spontaneity, and motor retardation). […] These are the symptoms that are most highly correlated with interpersonal functioning.
# [2] = tested at 1.01.1M in DMSO solution
# Sequence of 5-HT2A receptor (P28223 whole entry): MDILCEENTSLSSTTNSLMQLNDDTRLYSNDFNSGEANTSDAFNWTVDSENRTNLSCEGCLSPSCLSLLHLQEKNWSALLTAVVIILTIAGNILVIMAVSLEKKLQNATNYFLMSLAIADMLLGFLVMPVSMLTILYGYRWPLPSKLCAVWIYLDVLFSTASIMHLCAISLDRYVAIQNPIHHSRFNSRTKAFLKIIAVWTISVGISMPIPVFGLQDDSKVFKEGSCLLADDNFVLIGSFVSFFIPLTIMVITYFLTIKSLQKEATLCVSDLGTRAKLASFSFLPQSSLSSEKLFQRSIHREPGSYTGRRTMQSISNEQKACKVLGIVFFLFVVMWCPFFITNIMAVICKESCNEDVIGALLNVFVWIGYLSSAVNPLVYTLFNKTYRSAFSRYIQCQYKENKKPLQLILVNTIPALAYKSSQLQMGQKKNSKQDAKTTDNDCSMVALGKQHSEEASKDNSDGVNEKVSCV
SMILES,Ki (5-HT2A receptor; Cheng Prusoff equation) [nM],IC50 (5-HT2A receptor; Hill equation curve fitting) [nM],"% inhibition of control specific binding, 5-HT2A (agonist binding) (5-HT2A receptor; [2]) [%]",Ki (D2S; Cheng Prusoff equation) [nM],IC50 (D2S; Hill equation curve fitting) [nM],"% inhibition of control specific binding, D2S (agonist binding) (D2S; [2]) [%]","% inhibition of control specific binding, D1 (antagonist binding) (D1) [%]","% inhibition of control specific binding, NET (antagonist binding) (NET) [%]","% inhibition of control specific binding, Sodium channel (site 2 antagonist binding) (Sodium channel (site 2)) [%]",Ki (SERT; Cheng Prusoff equation) [nM],IC50 (SERT; Hill equation curve fitting) [nM],"% inhibition of control specific binding, SERT (antagonist binding) (SERT; [2]) [%]","% inhibition of control specific binding, 5-HT2B (agonist binding) (5-HT2B) [%]",symptoms of emotional experience compared to placebo [1]
"CN1CCN2c3c(cccc31)[C@@H]1CN(CCCC(=O)c3ccc(N4CC[C@H]5[C@@H](C4)c4cccc6c4N5CCN6C)cc3)CC[C@@H]12 [Compound 1, 4-((6bR,10aS)-3-methyl-2,3,6b,9,10,10a-hexahydro-1H-pyrido[3′,4′: 4,5]pyrrolo[1,2,3-de]quinoxalin-8(7H)-yl)-1(4-((6bR,10aS)-3-methyl-2,3,6b,9,10,10a-hexahydro-1H-pyrido[3′,4′: 4,5]pyrrolo[1,2,3-de]quinoxalin-8(7H)-yl)phenyl)butan-1-one]",51,68,90.8,72,180,80.63,52.3,82.9,87.0,1.3,2.9,99.9,87.0,–
"CN1CCN2c3c(cccc31)[C@@H]1CN(CCCC(=O)c3ccc(F)cc3)CC[C@@H]12 [lumateperone, 4-((6bR,10aS)-3-methyl-2,3,6b,9,10,10a-hexahydro-1H-pyrido[3′,4′: 4,5]pyrrolo[1,2,3-de]quinoxalin-8(7H)-yl)-1-(4-fluorophenyl)-1-butanone]",–,–,–,–,–,–,–,–,–,–,–,–,–,significant and unexpected improvement
